In patent US12168026B2, “Methods and compositions for wound healing” (priority 2018, dated 2024):
Structures can show the parent of a compound that is named as a salt.

Legend:
[1] = system: P. aeruginosa (ATCC 27853); assay: Antibacterial activity of solutions of Bp, Ag+ or their mixture (viable counts after 24-h incubation); type: cell-based; conditions: for CFU decrease of P. aeruginosa: 10^7 CFU in 500 μL HBSS
Method: Viable bacterial counts remaining in suspension following the 24-h incubation were determined by dilution and plating.

[2] = system: NIH 3T3 mouse fibroblast cells
Method: The mouse fibroblast cell line NIH-3T3, obtained from ATCC (Manassas, VA) was used for all in vitro cell-based experiments. Cell cultures were maintained at 37° C. and were fed with DMEM growth medium supplemented with 10% calf bovine serum (CBS), 2×10^−[…] (Invitrogen, Carlsbad, CA), and 1% Penicillin Streptomycin. Cells were seeded with 1.0×10^4 cells/well of the 96-well plate and were allowed to attach on the bottom of wells for 24 h. After incubation, cells were washed with […] Phosphate Buffer Saline (PBS); pH 7.4). […] Cells treated with 1% Triton X-100 (Sigma Aldrich, St Louis, MO) were used as controls for complete cell death. For the evaluation of cytotoxicity, the CellTiter 96 AQueous non-radioactive assay (Promega, Germany) was performed. This assay measures the conversion (reduction) of a weakly colored tetrazolium salt of MTS (3-{4,5-dimethylthiazol-2-yl}-5-{3-carboxymethoxyphenyl}-2-{4-sulfophenyl}-2H-tetrazolium) to brightly colored formazan by mitochondrial dehydrogenase of metabolically active (live) cells. The amount of formazan formed varies proportionally with the number of live cells. The wells were rinsed with PBS to remove non-adherent cells and then incubated in a serum-free medium containing 20% MTS reagent for 3 h at 37° C. Then, the absorbance was read in a spectrophotometric plate reader at 490 nm (BioTek Instruments, Winooski, VT).
Briefly, fibroblasts were allowed to attach on the bottom of 96-well plates (within 24-h incubation). […] Following incubation, the viability of the cells was determined by measuring cellular mitochondrial dehydrogenase activity (see Materials and Methods for details).

[3] = system: P. aeruginosa (ATCC 27853); conditions: Ag+ 0.4 μg mL^−1; cited from earlier work
rats wounds = conditions: 5 mg mL^−1 at local incisions of rats wounds; cited from earlier work
[4] = Bp 2.5 mg mL^−1; cited from earlier work

Compound	CFU decrease of P. aeruginosa ([1]; Ag+ 0.3 μg mL^−1, 24 h) [log10 CFU]	CFU decrease of P. aeruginosa ([1]; Ag+ 0.4 μg mL^−1, 24 h) [log10 CFU]	toxicity toward fibroblasts ([2]; Ag+ 0.4 μg mL^−1 and up to 1.2 μg mL^−1, 24 h)	effect on viability of mammalian cells such as fibroblasts ([2]; Ag+ 1.7 μg mL^−1 and Bp 0.25 mg mL^−1)	CFU decrease of P. aeruginosa (reported) [3] [log10 CFU]	antimicrobial activity ([1]; Bp 0.5 mg mL^−1, 24 h)	cytotoxicity limit (concentration of agent that caused a ~50% decrease in viability of cells) ([2]; mouse, 24 h, pH 7.4) [µg/mL]	collagen production (rats wounds)	inflammation (rats wounds)	antimicrobial activity (reported) [4]
O=[N+]([O-])[O-].[Ag+] [Ag^+, Silver nitrate]	3	6	not to cause significant toxicity	do not significantly reduce the viability	6	–	–	–	–	–
CCCCN1CCCCC1C(=O)Nc1c(C)cccc1C (stereo not shown) [Bp, bupivacaine hydrochloride monohydrate]	–	–	–	–	–	does not exhibit antimicrobial activity	1.2	decrease collagen production	significant inflammation	exhibit antimicrobial activity
